Some results are limits rather than exact numbers.

Among the data in patent US6645983B1, “Pharmaceutical compositions comprising 4-quinolones for treating cancers” (Laboratoire L. Lafon, priority 1999, dated 2003) are viability and MTD values, retold here.

The test system of one data set is A-427. In words: MTT test, cytotoxic activity on non-clonogenic cell lines. In kind it is cell-based. Particulars: Homo sapiens, 10^−5 M, 72 hours of incubation, control condition = 100%, mean value, read-out: mean optical density as percentage of control, A-427. Summed up: (§1)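 Human cancer lines seeded at 20 000–50 000 cells/ml, allowed 24 h to attach, then exposed to compounds at 10^−5 to 10^−10 M versus solvent control.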
In general terms: Tetrazolium assays rely on reduction of a dye to a coloured formazan, in cell work by metabolically active cells.
`COc1ccc(-c2cn(C)c3cc(OC)cc(N4CCCC4)c3c2=O)cc1` [CRL8434, 7-Methoxy-3-(4-methoxyphenyl)-1-methyl-5-pyrrolidino-1,4-dihydro-4-quinolinone]: the viability at 10 µM stood at 110%.
On the same count and under the same terms, under `COc1cccc2c(=O)c(-c3ccccc3)c[nH]c12` [CRL8328, 8-Methoxy-3-phenyl-1,4-dihydro-4-quinolinone] stands 101%.

For another data set, the system named is A549. The data set is described as above. Particulars: Homo sapiens, 10^−5 M, 72 hours of incubation, control condition = 100%, mean value, read-out: mean optical density as percentage of control, A549. It counts as cell-based. The essentials: as §1
Turning to `COc1ccc(-c2cn(C)c3cc(OC)cc(N4CCCC4)c3c2=O)cc1` [CRL8434, 7-Methoxy-3-(4-methoxyphenyl)-1-methyl-5-pyrrolidino-1,4-dihydro-4-quinolinone], the viability at 10 µM came out at 99%.
Same read-out and setting: under `COc1cccc2c(=O)c(-c3ccccc3)c[nH]c12` [CRL8328, 8-Methoxy-3-phenyl-1,4-dihydro-4-quinolinone] stands 92.5%.

For a further data set, the system named is HCT-15. The description is as above. The conditions noted are these: Homo sapiens, 10^−5 M, 72 hours of incubation, control condition = 100%, mean value, read-out: mean optical density as percentage of control, HCT-16. It counts as cell-based. The essentials:
as §1
Take `COc1ccc(-c2cn(C)c3cc(OC)cc(N4CCCC4)c3c2=O)cc1` [CRL8434, 7-Methoxy-3-(4-methoxyphenyl)-1-methyl-5-pyrrolidino-1,4-dihydro-4-quinolinone]: the viability at 10 µM was 101%.
`COc1cccc2c(=O)c(-c3ccccc3)c[nH]c12` [CRL8328, 8-Methoxy-3-phenyl-1,4-dihydro-4-quinolinone]: the viability at 10 µM is 85.8%.

The test system of a further data set is LoVo. Described as above. It counts as cell-based. The conditions noted are these: Homo sapiens, 10^−5 M, 72 hours of incubation, control condition = 100%, mean value, read-out: mean optical density as percentage of control, LoVo. Summed up:
as §1
Take `COc1ccc(-c2cn(C)c3cc(OC)cc(N4CCCC4)c3c2=O)cc1` [CRL8434, 7-Methoxy-3-(4-methoxyphenyl)-1-methyl-5-pyrrolidino-1,4-dihydro-4-quinolinone]: the viability at 10 µM came to 106%.
As to `COc1cccc2c(=O)c(-c3ccccc3)c[nH]c12` [CRL8328, 8-Methoxy-3-phenyl-1,4-dihydro-4-quinolinone], the viability at 10 µM was determined as 94.3%.

The subject of another data set is MCF7. The data set is described as above. In kind it is cell-based. The conditions noted are these: Homo sapiens, 10^−5 M, 72 hours of incubation, control condition = 100%, mean value, read-out: mean optical density as percentage of control, MCF7. The essentials:
as §1
Turning to `COc1ccc(-c2cn(C)c3cc(OC)cc(N4CCCC4)c3c2=O)cc1` [CRL8434, 7-Methoxy-3-(4-methoxyphenyl)-1-methyl-5-pyrrolidino-1,4-dihydro-4-quinolinone], the viability at 10 µM is 96.2%.
The same measure, in the same setting: with `COc1cccc2c(=O)c(-c3ccccc3)c[nH]c12` [CRL8328, 8-Methoxy-3-phenyl-1,4-dihydro-4-quinolinone] the figure was 93.7%.

The subject of the next data set is PC-3. The data set is described as above. In kind it is cell-based. The conditions noted are these: Homo sapiens, 10^−5 M, 72 hours of incubation, control condition = 100%, mean value, read-out: mean optical density as percentage of control, PC-3. Summed up:
as §1
Take `COc1ccc(-c2cn(C)c3cc(OC)cc(N4CCCC4)c3c2=O)cc1` [CRL8434, 7-Methoxy-3-(4-methoxyphenyl)-1-methyl-5-pyrrolidino-1,4-dihydro-4-quinolinone]: the viability at 10 µM was 113%.
As to `COc1cccc2c(=O)c(-c3ccccc3)c[nH]c12` [CRL8328, 8-Methoxy-3-phenyl-1,4-dihydro-4-quinolinone], the viability at 10 µM amounted to 91.9%.

The next data set has as its system T-47D. Described as above. In kind it is cell-based. The conditions noted are these: Homo sapiens, T47D; 10^−5 M, 72 hours of incubation, control condition = 100%, mean value; read-out: mean optical density as percentage of control, T-47D. Summed up:
as §1
Regarding `COc1ccc(-c2cn(C)c3cc(OC)cc(N4CCCC4)c3c2=O)cc1` [CRL8434, 7-Methoxy-3-(4-methoxyphenyl)-1-methyl-5-pyrrolidino-1,4-dihydro-4-quinolinone], the viability at 10 µM was 85.8%.
Still for that read-out and setting: with `COc1cccc2c(=O)c(-c3ccccc3)c[nH]c12` [CRL8328, 8-Methoxy-3-phenyl-1,4-dihydro-4-quinolinone] the figure was 96%.

A further data set has as its system U-373MG. The data set is described as above. It counts as cell-based. The conditions noted are these: Homo sapiens, U373 MG; 10^−5 M, 72 hours of incubation, control condition = 100%, mean value; read-out: mean optical density as percentage of control, U-373MG. The essentials: as §1
Take `COc1ccc(-c2cn(C)c3cc(OC)cc(N4CCCC4)c3c2=O)cc1` [CRL8434, 7-Methoxy-3-(4-methoxyphenyl)-1-methyl-5-pyrrolidino-1,4-dihydro-4-quinolinone]: the viability at 10 µM came out at 92.2%.
The same measure, in the same setting: with `COc1cccc2c(=O)c(-c3ccccc3)c[nH]c12` [CRL8328, 8-Methoxy-3-phenyl-1,4-dihydro-4-quinolinone] the figure was 98.1%.

The test system of the next data set is U-87MG. The description is as above. It counts as cell-based. The conditions noted are these: Homo sapiens, U-87 MG; 10^−5 M, 72 hours of incubation, control condition = 100%, mean value; read-out: mean optical density as percentage of control, U-87MG. The essentials: as §1
With `COc1ccc(-c2cn(C)c3cc(OC)cc(N4CCCC4)c3c2=O)cc1` [CRL8434, 7-Methoxy-3-(4-methoxyphenyl)-1-methyl-5-pyrrolidino-1,4-dihydro-4-quinolinone], the viability at 10 µM turned out to be 89.7%.
Still for that read-out and setting: with `COc1cccc2c(=O)c(-c3ccccc3)c[nH]c12` [CRL8328, 8-Methoxy-3-phenyl-1,4-dihydro-4-quinolinone] the figure was 85.7%.

The next data set has as its system SW1088. Described as above. It counts as cell-based. Particulars: Homo sapiens, 10^−5 M, 72 hours of incubation, control condition = 100%, mean value, read-out: mean optical density as percentage of control, SW1088. The essentials:
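Human astrocytoma SW1088 cells seeded, grown 24 h at 37° C, 5% CO2, then exposed to compounds at 10^−5 to 10^−10 M versus solvent control. Viability by MTT reduction: 3 h MTT incubation, formazan dissolved in DMSO and read by spectrophotometry.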
As for `COc1ccc(-c2cn(C)c3cc(OC)cc(N4CCCC4)c3c2=O)cc1` [CRL8434, 7-Methoxy-3-(4-methoxyphenyl)-1-methyl-5-pyrrolidino-1,4-dihydro-4-quinolinone], the viability at 10 µM was 99.9%.
In the case of `COc1cccc2c(=O)c(-c3ccccc3)c[nH]c12` [CRL8328, 8-Methoxy-3-phenyl-1,4-dihydro-4-quinolinone], the viability at 10 µM was 91%.

The next data set concerns J82. The description is as above. It counts as cell-based. The conditions noted are these: Homo sapiens, 10^−5 M, 72 hours of incubation, control condition = 100%, mean value, read-out: mean optical density as percentage of control, J82. The essentials:
(§2)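 Human bladder cancer lines were seeded at 20 000–50 000 cells/ml and, after 24 h, exposed to compounds at 10^−5 to 10^−10 M against a solvent control. Formazan was dissolved in DMSO and viability was read by spectrophotometric optical density.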
Take `COc1ccc(-c2cn(C)c3cc(OC)cc(N4CCCC4)c3c2=O)cc1` [CRL8434, 7-Methoxy-3-(4-methoxyphenyl)-1-methyl-5-pyrrolidino-1,4-dihydro-4-quinolinone]: the viability at 10 µM is 99.3%.
Still for that read-out and setting: under `COc1cccc2c(=O)c(-c3ccccc3)c[nH]c12` [CRL8328, 8-Methoxy-3-phenyl-1,4-dihydro-4-quinolinone] stands 95.9%.

The next data set concerns T24. The description is as above. It counts as cell-based. The conditions noted are these: Homo sapiens, T-24; 10^−5 M, 72 hours of incubation, control condition = 100%, mean value; read-out: mean optical density as percentage of control, T24. The essentials:
as §2
Regarding `COc1ccc(-c2cn(C)c3cc(OC)cc(N4CCCC4)c3c2=O)cc1` [CRL8434, 7-Methoxy-3-(4-methoxyphenyl)-1-methyl-5-pyrrolidino-1,4-dihydro-4-quinolinone], the viability at 10 µM was 98.7%.
Regarding `COc1cccc2c(=O)c(-c3ccccc3)c[nH]c12` [CRL8328, 8-Methoxy-3-phenyl-1,4-dihydro-4-quinolinone], the viability at 10 µM was found to be 94.8%.

System in the next data set: not listed separately
As to the kind of experiment: Determination of the maximum tolerated dose (MTD). The conditions noted are these: B6D2F1/Jico, mouse, in vivo, ip; single intraperitoneal administration, doses 2.5 to 160 mg/kg, survival over 14 days. Summed up:
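Mice were 4- to 6-week-old B6D2F1/Jico. They received a single intraperitoneal dose of 2.5 to 160 mg/kg, and survival and body weight were followed for 14 days. MTD is given in mg/kg and is capped at 160 mg/kg by default.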
With `COc1ccc(-c2cn(C)c3cc(OC)cc(N4CCCC4)c3c2=O)cc1` [CRL8434, 7-Methoxy-3-(4-methoxyphenyl)-1-methyl-5-pyrrolidino-1,4-dihydro-4-quinolinone], the maximal tolerated dose (MTD) (usually the highest dose tested that stayed within the study's limit of toxicity) at 14 day was more than 160 mg/kg.
Still for that read-out and setting: with `COc1cccc2c(=O)c(-c3ccccc3)c[nH]c12` [CRL8328, 8-Methoxy-3-phenyl-1,4-dihydro-4-quinolinone] the figure was 80 mg/kg.
